Measurements published in US8173428B2, “LNA oligonucleotides and the treatment of cancer” (Santaris Pharma A/S, priority 2004, dated 2012).
Like-named read-outs stand apart in the source and are kept apart here. Oligonucleotides are written 5' to 3', each unit as a sugar letter and its base; * is a phosphorothioate linkage, no mark a phosphodiester; rarer units and linkages stand in square brackets, end groups in braces. Plain capitals give the bases only. l = locked nucleic acid (LNA); [5mC] = 5-methylcytosine; d = 2'-deoxy (DNA)

What was measured:
15PC3 cells = test: MTS assay of proliferating viable cells; type: cell-based, human
Protocol: Culturing of cells: 15PC3 was cultured in DMEM (Sigma) containing 10% fetal bovine serum, Glutamax I and gentamicin at 37° C., 95% humidity and 5% CO2. The cervical carcinoma cell line HeLa were cultured in MEM (Sigma) containing 10% fetal bovine serum, Glutamax I and gentamicin at 37° C., 95% humidity and 5% CO2. When reaching 60-70% confluency, the cells were transfected using Lipofectamine 2000 (5 μg/ml).
Cells were seeded to a density of 10000 cells per well in clear 96 well plate (Scientific Orange no. 1472030100) in DMEM the day prior to transfection. The next day cells were washed once in prewarmed OptiMEM followed by addition of 72 μl OptiMEM containing 5 μg/ml Lipofectamine 2000 (Invitrogen). Cells were incubated for 7 min before adding 18 μl oligonucleotides diluted in OptiMEM. […] After 4 hours of treatment, cells were washed in OptiMEM and 100 μl serum containing DMEM was added. Following oligonucleotide treatment cells were allowed to recover for the period indicated, viable cells were measured by adding 20 μl of the tetrazolium compound [3-(4,5-[…])-5-(3-carboxymethoxyphenyl)-2-(4-sulfophenyl)-2H-tetrazolium, inner salt; MTS] and an electron coupling reagent (phenazine ethosulfate, PES; CellTiter 96® AQueous One Solution Cell Proliferation Assay, Promega). Viable cells were measured at 490 nm and 650 nm in a Powerwave (Biotek Instruments).
The inhibition of growth rate ΔOD (490-650 nm)/h was plotted against the oligonucleotide concentration relative to mock, which was set to 100%. The maximum inhibition of proliferation observed in the MTS assay was 70% (minimum 30%). (Table 5 and FIG. 5)

[1] = Stability in human plasma; type: in vitro ADME; conditions: 20 μM, 37° C., up to 96 hours
Protocol: Stability of 20 μM SEQ ID NO. 2 and SEQ ID NO. 24 in human and mouse plasma (Li-Heparine (Taconic, M&B)) at 37° C. at different time aliquots: 0, 1, 2, 4, 24, 48 and 96 hours. A commercially available ladder was also included (10 and 20 mer are visible on the PAGE). (see FIG. 1)

Survivin protein = test: Tumour analysis: Survivin protein by Western blotting after intratumoural injection; type: in vivo, Balb/cA-nu mice; conditions: 25 mg/kg intratumoral, 6 times over 2 weeks, sampling 24 hours after last dose, versus saline
Protocol: Model: PC-3 human prostate cancer cells (ECACC) are mixed with Matrigel and injected s.c. into both flanks of female Balb/cA-nu mice on Day 0.
Administration: Oligonucleotides i.p. (see FIG. 8) or intratumoural (see FIG. 9), Taxol i.v., all according to schedule
cDNA synthesis: First strand synthesis was performed using OmniScript Reverse Transcriptase kit according to the manufacturer's instructions (Qiagen). […] Protein levels were analysed on individual tumours by western blotting (see FIG. 9). Real time PCR analysis: To determine the relative Survivin mRNA level treated and untreated tumours, the generated cDNA was used in quantitative PCR analysis using an iCycler from BioRad. The cDNA was diluted 5-fold and 8 μl was mixed with 52 μl Taqman probe master mix containing 30 μl Platinum Quantitative PCR SuperMix UDG 2×PCR master mix (Invitrogen), 3 μl 20× Taqman probe and primer mix (forward primer: 5′-[…]-3′ (SEQ ID NO. 29), final 0.9 μM. Reverse primer: 5′-[…]-3′ (SEQ ID NO. 30), final 0.6 μM and taqman probe: FAM-5′-[…]-TAMRA-3′ (SEQ ID NO. 31), final 0.1 μM) and 19 μl H2O. […] To normalize any variance in sample preparation, the endogenous GAPDH mRNA was quantified using a pre-developed Taqman assay reagent from Applied Biosystems (4310884E) according to manufacture's instructions. […] Total protein concentrations were measured using a BCA protein assay kit (Pierce). […]

## 5′-^MeCsTs^MeCsAsastscscsastsgsgs^MeCsAsGsc-3′ (l[5mC]*lT*l[5mC]*lA*dA*dT*dC*dC*dA*dT*dG*dG*l[5mC]*lA*lG*dC) [SEQ ID NO. 2]
15PC3 cells; 0.2, 1, 5, 25 and 100 nM, 13-72 hours after transfection, 15PC3 cells
  Proliferation (relative number of viable cells): dose dependent inhibition of proliferation
15PC3 cells; 48 hours (Table 7, FIG. 5), read-out: Proliferation IC50 (48 hours)
  IC50: 5 nM
15PC3 cells; 48 hours, transfected 15PC3 cells (Table 5), read-out: Inhibition of proliferation, MTS assay IC50 (48 hours)
  IC50: 4.9 nM
[1]
  Stability in human plasma (degradation products): No degradation products
Survivin protein
  Survivin protein level in tumours: reduced levels of both mRNA and Survivin protein
